# Molecular target: T1, ΔF508-CFTR (Homo sapiens, UniProt P13569, DEL508-508)
# T1 construct: expressed in transfected cells; host or cells: CFSMEo- (human CF submucosal gland epithelial cells, ΔF508/Q2X), transiently transfected by nucleofection
# Test: ΔF508-CFTR-HRP trafficking assay (cell surface expression of ΔF508-CFTR)
# Type: cell-based
# Conditions: CFSMEo- cells transiently transfected with ΔF508-CFTR-HRP; test agent 3 μM, 48 h; HRP chemiluminescence
# Text: Test agents were screened for their effect on cell surface expression of ΔF508-CFTR using the ΔF508-CFTR-HRP trafficking assay. For this assay, a ΔF508-CFTR expression construct was designed with an in-frame insertion of a horseradish peroxidase (HRP) tag into the 4th extracellular loop of CFTR. The HRP tag would be presented extracellularly, in cells transiently transfected with the ΔF508-CFTR-HRP construct, following correction of the ΔF508-CFTR trafficking defect. The quantity of ΔF508-CFTR-HRP expressed on the plasma membrane could therefore be determined by measuring an HRP-dependent signal after the application of a cell-impermeable HRP substrate.
# In brief, CF submucosal gland epithelial cells (CFSMEo-), derived from the airways of a CF patient (ΔF508/Q2X) and provided by Dr. Dieter Gruenert, University of California-San Francisco, were cultured at 37° C. with 5% CO2 in minimum essential medium (MEM) with Earle's salt and nonessential amino acids, supplemented with 10% (volume per volume [v/v]) fetal bovine serum, 2 mM L-glutamine and 1× (v/v) penicillin/streptomycin and grown in tissue culture-treated flasks coated with an extracellular matrix (ECM) cocktail consisting of 10 μg/mL human fibronectin, 30 μg/mL bovine collagen type I, and 100 μg/mL bovine serum albumin in LHC basal medium. These CFSMEo^− cells were transiently transfected with 4 μg of the ΔF508-CFTR-HRP expression construct using the Lonza 4D-Nucleofector Core unit (Lonza, Catalogue No. AAF-1002B) with the X unit (Lonza, Catalogue No. AAF-1002X) and SF Cell Line 4D-Nucleofector X Kit L (Lonza, Catalogue No. V4XC-2024) according to the manufacturer's instructions and plated at 1.2×10^4 cells/well onto collagen-coated, 96-well plates (Corning Inc.). Twenty-four h post-transfection, cells were treated with test agents, solubilized in DMSO at a concentration of 3 μM in replicates of 3, and allowed to incubate for 48 h. To detect HRP expression, cell culture media was removed, cells were washed with PBS and 100 μL of Luminata Forte HRP chemiluminescent substrate (EMD Millipore, Burlington, MA) was added to each well. Following a 5-minute incubation, chemiluminescence was measured in relative luminescent units (RLUs) using an EnVision plate reader (Perkin Elmer, Waltham, MA).
# The ΔF508-CFTR-HRP trafficking data was normalized to the vehicle treated control (0.3% DMSO), followed by calculation of the mean, standard deviation, and standard error. If the test agent increased cell surface expression of ΔF508-CFTR-HRP relative to the vehicle-treated control, then that test agent was considered a ΔF508-CFTR corrector. Based on the description above, the biological activity of the examples in this disclosure is collected in Table 2.
# T1 sequence (P13569 with tags, fused parts or gaps DEL508-508): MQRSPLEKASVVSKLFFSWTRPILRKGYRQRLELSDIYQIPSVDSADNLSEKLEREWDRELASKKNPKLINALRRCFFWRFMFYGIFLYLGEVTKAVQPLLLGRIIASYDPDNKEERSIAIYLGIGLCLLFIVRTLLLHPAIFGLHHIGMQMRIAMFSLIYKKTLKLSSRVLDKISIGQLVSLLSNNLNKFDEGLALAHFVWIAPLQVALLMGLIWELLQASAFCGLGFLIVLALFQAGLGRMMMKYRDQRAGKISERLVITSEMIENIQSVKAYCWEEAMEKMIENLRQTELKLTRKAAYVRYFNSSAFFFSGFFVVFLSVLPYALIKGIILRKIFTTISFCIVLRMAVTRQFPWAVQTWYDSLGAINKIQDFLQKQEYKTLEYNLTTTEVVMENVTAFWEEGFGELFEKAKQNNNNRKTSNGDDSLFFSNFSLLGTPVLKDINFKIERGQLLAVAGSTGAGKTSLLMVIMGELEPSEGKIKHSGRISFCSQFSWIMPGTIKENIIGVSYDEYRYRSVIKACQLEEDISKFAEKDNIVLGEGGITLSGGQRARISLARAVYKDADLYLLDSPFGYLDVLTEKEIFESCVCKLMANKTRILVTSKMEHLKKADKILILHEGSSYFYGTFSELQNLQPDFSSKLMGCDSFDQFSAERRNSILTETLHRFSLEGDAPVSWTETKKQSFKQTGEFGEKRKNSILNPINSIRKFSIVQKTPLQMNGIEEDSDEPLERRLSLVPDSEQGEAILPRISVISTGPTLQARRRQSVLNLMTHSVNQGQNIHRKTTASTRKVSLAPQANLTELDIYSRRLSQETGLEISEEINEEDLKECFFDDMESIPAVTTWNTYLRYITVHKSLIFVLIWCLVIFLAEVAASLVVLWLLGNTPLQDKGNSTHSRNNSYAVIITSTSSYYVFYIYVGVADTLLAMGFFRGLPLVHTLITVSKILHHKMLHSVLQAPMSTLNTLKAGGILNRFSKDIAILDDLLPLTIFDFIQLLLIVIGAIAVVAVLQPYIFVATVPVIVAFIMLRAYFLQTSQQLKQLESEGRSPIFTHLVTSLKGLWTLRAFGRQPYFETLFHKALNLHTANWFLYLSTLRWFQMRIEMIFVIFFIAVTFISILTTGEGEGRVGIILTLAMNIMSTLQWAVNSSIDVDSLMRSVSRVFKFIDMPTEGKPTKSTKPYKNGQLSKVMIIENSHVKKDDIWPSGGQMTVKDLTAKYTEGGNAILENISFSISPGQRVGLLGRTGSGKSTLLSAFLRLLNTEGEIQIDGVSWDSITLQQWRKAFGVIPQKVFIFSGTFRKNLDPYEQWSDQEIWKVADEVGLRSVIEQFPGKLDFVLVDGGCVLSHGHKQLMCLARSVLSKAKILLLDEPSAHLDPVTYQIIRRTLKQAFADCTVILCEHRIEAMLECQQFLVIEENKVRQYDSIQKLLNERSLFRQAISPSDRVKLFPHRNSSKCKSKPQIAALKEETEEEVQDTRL
row,Structure (SMILES),RLUs: ΔF508-CFTR-HRP trafficking data normalized to the vehicle treated control (0.3% DMSO)
1,"C[C@H](Oc1cncc(-n2nc(C(F)(F)F)c3c2[C@@H](OC24CC(C(=O)O)(C2)C4)CCC3)c1)c1cc2c(cc1F)OC(F)(F)O2 (single isomer, unassigned) [74 (P1)]",A (RLU 5.0 μM-10 μM)
2,"C[C@H](Oc1cncc(-n2nc(C(F)(F)F)c3c2[C@H](OC24CC(C(=O)O)(C2)C4)CCC3)c1)c1cc2c(cc1F)OC(F)(F)O2 (single isomer, unassigned) [74 (P2)]",A (RLU 5.0 μM-10 μM)
3,"C[C@H](Oc1cc(-n2nc(C(F)(F)F)c3c2[C@@H](OC24CC(C(=O)O)(C2)C4)CCC3)cnc1F)c1cc2c(cc1F)OC(F)(F)O2 (single isomer, unassigned) [75 (P1)]",C (RLU 0.0 μM-3.5 μM)
4,"C[C@H](Oc1cc(-n2nc(C(F)(F)F)c3c2[C@H](OC24CC(C(=O)O)(C2)C4)CCC3)cnc1F)c1cc2c(cc1F)OC(F)(F)O2 (single isomer, unassigned) [75 (P2)]",C (RLU 0.0 μM-3.5 μM)
5,"C[C@H](Oc1cc(-n2nc(C(F)(F)F)c3c2[C@@H](OC24CC(C(=O)O)(C2)C4)CCC3)ccc1F)c1ccc2c(c1)OC(F)(F)O2 (single isomer, unassigned) [76 (P1)]",C (RLU 0.0 μM-3.5 μM)
6,"C[C@H](Oc1cc(-n2nc(C(F)(F)F)c3c2[C@H](OC24CC(C(=O)O)(C2)C4)CCC3)ccc1F)c1ccc2c(c1)OC(F)(F)O2 (single isomer, unassigned) [76 (P2)]",C (RLU 0.0 μM-3.5 μM)
7,"C[C@H](Oc1cccc(-n2nc(C(F)(F)F)c3c2[C@@H](OC24CC(C(=O)O)(C2)C4)CCC3)n1)c1ccc2c(c1)OC(F)(F)O2 (single isomer, unassigned) [77 (P1)]",B (RLU 3.5 μM-5.0 μM)
8,"C[C@H](Oc1cccc(-n2nc(C(F)(F)F)c3c2[C@H](OC24CC(C(=O)O)(C2)C4)CCC3)n1)c1ccc2c(c1)OC(F)(F)O2 (single isomer, unassigned) [77 (P2)]",B (RLU 3.5 μM-5.0 μM)
9,"C[C@H](Oc1cc(-n2nc(C(F)(F)F)c3c2[C@@H](OC24CC(CC(=O)O)(C2)C4)CCC3)ccc1F)c1ccc2c(c1)OC(F)(F)O2 (single isomer, unassigned) [78 (P1)]",C (RLU 0.0 μM-3.5 μM)
10,"C[C@H](Oc1cc(-n2nc(C(F)(F)F)c3c2[C@H](OC24CC(CC(=O)O)(C2)C4)CCC3)ccc1F)c1ccc2c(c1)OC(F)(F)O2 (single isomer, unassigned) [78 (P2)]",C (RLU 0.0 μM-3.5 μM)
11,"C[C@H](Oc1cc(-n2nc(C(F)(F)F)c3c2[C@@H](O[C@H]2CC[C@H](C(=O)O)CC2)CCC3)cnc1F)c1ccc2c(c1)OC(F)(F)O2 (single isomer, unassigned) [79 (P1)]",B (RLU 3.5 μM-5.0 μM)
12,"C[C@H](Oc1cc(-n2nc(C(F)(F)F)c3c2[C@@H](O[C@H]2CC[C@H](C(=O)O)CC2)CCC3)cc(F)n1)c1ccc2c(c1)OC(F)(F)O2 (single isomer, unassigned) [80 (P1)]",A (RLU 5.0 μM-10 μM)
13,"C[C@H](Oc1cc(-n2nc(C(F)(F)F)c3c2[C@H](OC24CCC(C(=O)O)(CC2)CC4)CCC3)cc(F)n1)c1ccc2c(c1)OC(F)(F)O2 (single isomer, unassigned) [81 (P1)]",A (RLU 5.0 μM-10 μM)

# More lines, now with the values ahead:
row,RLUs: ΔF508-CFTR-HRP trafficking data normalized to the vehicle treated control (0.3% DMSO),Structure (SMILES)
1,A (RLU 5.0 μM-10 μM),C[C@H](Oc1cccc(-n2nc(C(F)(F)F)c3c2C(O[C@H]2CC[C@H](C(=O)O)CC2)CCC3)c1)c1ccc2c(c1)OC(F)(F)O2 (relative stereo) [Example 37]
2,C (RLU 0.0 μM-3.5 μM),"C[C@H](Oc1cc(-n2nc(C(F)(F)F)c3c2[C@@H](OC24CCC(C(=O)O)(CC2)CC4)CCC3)cc(F)n1)c1ccc2c(c1)OC(F)(F)O2 (single isomer, unassigned) [81 (P2)]"
3,B (RLU 3.5 μM-5.0 μM),"C[C@H](Oc1cc(-n2nc(C(F)(F)F)c3c2[C@@H](OC[C@H]2CC[C@H](C(=O)O)CC2)CCC3)cnc1F)c1ccc2c(c1)OC(F)(F)O2 (single isomer, unassigned) [82 (P1)]"
4,A (RLU 5.0 μM-10 μM),"C[C@H](Oc1cc(-n2nc(C(F)(F)F)c3c2[C@H](OC[C@H]2CC[C@H](C(=O)O)CC2)CCC3)cnc1F)c1ccc2c(c1)OC(F)(F)O2 (single isomer, unassigned) [82 (P2)]"
5,B (RLU 3.5 μM-5.0 μM),"C[C@H](Oc1cccc(-n2nc(C(F)(F)F)c3c2[C@@H](O[C@H]2C[C@H](C(=O)O)C2)CCC3)n1)c1cc2c(cc1F)OC(F)(F)O2 (single isomer, unassigned) [83 (P1)]"
6,C (RLU 0.0 μM-3.5 μM),"C[C@H](Oc1cccc(-n2nc(C(F)(F)F)c3c2[C@H](O[C@H]2C[C@H](C(=O)O)C2)CCC3)n1)c1cc2c(cc1F)OC(F)(F)O2 (single isomer, unassigned) [83 (P2)]"
7,B (RLU 3.5 μM-5.0 μM),"C[C@H](Oc1nc(-n2nc(C(F)(F)F)c3c2[C@@H](O[C@H]2C[C@H](C(=O)O)C2)CCC3)ccc1F)c1cc2c(cc1F)OC(F)(F)O2 (single isomer, unassigned) [84 (P1)]"
8,C (RLU 0.0 μM-3.5 μM),"C[C@H](Oc1nc(-n2nc(C(F)(F)F)c3c2[C@H](O[C@H]2C[C@H](C(=O)O)C2)CCC3)ccc1F)c1cc2c(cc1F)OC(F)(F)O2 (single isomer, unassigned) [84 (P2)]"
9,C (RLU 0.0 μM-3.5 μM),"C[C@H](Oc1cc(-n2nc(C(F)(F)F)c3c2[C@@H](OC24CC(c5nc(=O)o[nH]5)(C2)C4)CCC3)ccc1F)c1ccc2c(c1)OC(F)(F)O2 (single isomer, unassigned) [85 (P1)]"
10,B (RLU 3.5 μM-5.0 μM),"C[C@H](Oc1cc(-n2nc(C(F)(F)F)c3c2[C@H](OC24CC(c5nc(=O)o[nH]5)(C2)C4)CCC3)ccc1F)c1ccc2c(c1)OC(F)(F)O2 (single isomer, unassigned) [85 (P2)]"
11,C (RLU 0.0 μM-3.5 μM),"C[C@H](Oc1cc(-n2nc(C(F)(F)F)c3c2[C@@H](OC24CC(c5nc(=O)o[nH]5)(C2)C4)CCC3)ccc1F)c1cc2c(cc1F)OC(F)(F)O2 (single isomer, unassigned) [86 (P1)]"
12,C (RLU 0.0 μM-3.5 μM),"C[C@H](Oc1cc(-n2nc(C(F)(F)F)c3c2[C@H](OC24CC(c5nc(=O)o[nH]5)(C2)C4)CCC3)ccc1F)c1cc2c(cc1F)OC(F)(F)O2 (single isomer, unassigned) [86 (P2)]"
13,C (RLU 0.0 μM-3.5 μM),"C[C@H](Nc1cc(-n2nc(C(F)(F)F)c3c2[C@@H](NC24CC(C(=O)O)(C2)C4)CCC3)ccc1F)c1ccc2c(c1)OC(F)(F)O2 (single isomer, unassigned) [94 (P1)]"
14,C (RLU 0.0 μM-3.5 μM),"C[C@H](Nc1cc(-n2nc(C(F)(F)F)c3c2[C@H](NC24CC(C(=O)O)(C2)C4)CCC3)ccc1F)c1ccc2c(c1)OC(F)(F)O2 (single isomer, unassigned) [94 (P2)]"
15,C (RLU 0.0 μM-3.5 μM),"C[C@H](Nc1cc(-n2nc(C(F)(F)F)c3c2[C@H](OC24CC(C(=O)O)(C2)C4)CCC3)ccc1F)c1ccc2c(c1)OC(F)(F)O2 (single isomer, unassigned) [95 (P2)]"
16,B (RLU 3.5 μM-5.0 μM),"C[C@H](Nc1cc(-n2nc(C(F)(F)F)c3c2[C@@H](OC24CC(C(=O)O)(C2)C4)CCC3)ccc1F)c1cc2c(cc1F)OC(F)(F)O2 (single isomer, unassigned) [96 (P1)]"
